Experimental data reported in ChEMBL document CHEMBL1201862, “PubChem BioAssay data set” (2004).
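All cell lines were grown in 96-well plates and treated with compound for 48 hours. GI50 = concentration required for 50% inhibition of growth.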 Calls of active or inactive are those of the source. Rule as the data show it: active = GI50 up to about 1.1 µM and inactive = higher.

Columns and labels:
Test in all cases: DTP human tumour cell line panel, 48 h
M14 = tested on: M14
KM12 = tested on: KM12
OVCAR-5 = tested on: OVCAR-5
HOP-62 = tested on: HOP-62
OVCAR-3 = tested on: OVCAR-3
LOX IMVI = tested on: LOX IMVI
COLO 205 = tested on: COLO 205
SW-620 = tested on: SW-620
U-251 = tested on: U-251
OVCAR-8 = tested on: OVCAR-8
CAKI-1 = tested on: CAKI-1
RPMI-8226 = tested on: RPMI-8226
RXF 393 = tested on: RXF 393
HL-60 = tested on: HL-60
HT-29 = tested on: HT-29
MDA-MB-231 = tested on: MDA-MB-231
NCI/ADR-RES = tested on: NCI/ADR-RES
DU-145 = tested on: DU-145
SR = tested on: SR

Measured: GI50

O=C1CCC2(c3ccccc3)Nc3cc(Cl)ccc3N12 (stereo not drawn)
inactive: M14 30.1 µM | KM12 27.6 µM | OVCAR-5 58.9 µM | HOP-62 25.4 µM | OVCAR-3 21.8 µM | LOX IMVI 33 µM | COLO 205 17.7 µM | SW-620 41.5 µM | U-251 48 µM | OVCAR-8 38.6 µM | CAKI-1 21 µM | RPMI-8226 22 µM | RXF 393 28.4 µM | HL-60 20.8 µM | HT-29 31.7 µM

CC(C)(C)C(=O)Nc1c(C=O)ccc2[nH]cnc12
inactive: MDA-MB-231 > 100 µM | M14 > 100 µM | KM12 80.4 µM | OVCAR-5 > 100 µM | HOP-62 61.8 µM | OVCAR-3 80.9 µM | LOX IMVI 62.8 µM | COLO 205 > 100 µM | SW-620 > 100 µM | U-251 82.4 µM | OVCAR-8 > 100 µM | CAKI-1 75.7 µM | RPMI-8226 89.9 µM | RXF 393 > 100 µM | NCI/ADR-RES > 100 µM

C1=C2C3=[N+](CCCC3)CC2Cc2ccsc21 (stereo not drawn)
inactive: MDA-MB-231 > 100 µM | M14 71.3 µM | KM12 42.4 µM | OVCAR-5 > 100 µM | HOP-62 > 100 µM | OVCAR-3 84.1 µM | LOX IMVI > 100 µM | COLO 205 > 100 µM | SW-620 > 100 µM | U-251 28.7 µM | OVCAR-8 82.6 µM | CAKI-1 > 100 µM | RXF 393 65 µM | DU-145 > 100 µM | HL-60 76.2 µM | NCI/ADR-RES > 100 µM | HT-29 > 100 µM

COc1cc(C(c2c(O)c3ccccc3oc2=O)c2c(O)c3ccccc3oc2=O)ccc1O
inactive: MDA-MB-231 21.1 µM | M14 18.1 µM | KM12 32.7 µM | OVCAR-5 18.7 µM | HOP-62 44.4 µM | OVCAR-3 19.5 µM | LOX IMVI 24.6 µM | COLO 205 17.2 µM | SW-620 23.7 µM | U-251 22.9 µM | OVCAR-8 27.7 µM | CAKI-1 20.8 µM | RPMI-8226 34.6 µM | RXF 393 18 µM | DU-145 21.6 µM | HL-60 24.7 µM | NCI/ADR-RES 28.6 µM | HT-29 21.1 µM

CCOc1cccc(/C=N/N=C2\C(=O)Nc3c(Cl)cc(Cl)cc32)c1O
inactive: MDA-MB-231 37.2 µM | M14 73.3 µM | KM12 > 100 µM | OVCAR-5 > 100 µM | HOP-62 30.4 µM | OVCAR-3 36.9 µM | LOX IMVI 32.5 µM | COLO 205 > 100 µM | SW-620 75.9 µM | U-251 46.5 µM | OVCAR-8 60.5 µM | CAKI-1 > 100 µM | RXF 393 > 100 µM | HL-60 33.4 µM | NCI/ADR-RES 33.3 µM | HT-29 > 100 µM | SR 29.4 µM

COc1ccc(/C=C2\CC3C4CC=C5C[C@@H](N6CCCC6)CC[C@]5(C)C4CC[C@]3(C)[C@H]2O)cc1OC (stereo partly drawn)
inactive: MDA-MB-231 7.85 µM | M14 9.44 µM | KM12 6.56 µM | OVCAR-5 10.2 µM | HOP-62 5.48 µM | OVCAR-3 8.32 µM | LOX IMVI 8.97 µM | COLO 205 8.38 µM | SW-620 15.8 µM | U-251 8.45 µM | OVCAR-8 10.6 µM | CAKI-1 8.65 µM | RPMI-8226 7.52 µM | RXF 393 8.77 µM | DU-145 11.2 µM | HL-60 14.4 µM | NCI/ADR-RES 9.02 µM | HT-29 4.13 µM

Cc1nc2ccccc2c(=O)n1NC(=O)c1ccc([N+](=O)[O-])cc1
inactive: MDA-MB-231 > 100 µM | M14 > 100 µM | KM12 > 100 µM | OVCAR-5 > 100 µM | HOP-62 > 100 µM | OVCAR-3 > 100 µM | LOX IMVI > 100 µM | COLO 205 > 100 µM | SW-620 > 100 µM | U-251 > 100 µM | OVCAR-8 > 100 µM | RPMI-8226 > 100 µM | RXF 393 > 100 µM | DU-145 > 100 µM | HL-60 > 100 µM | HT-29 > 100 µM | SR > 100 µM

O=C(NC1CCCCCC1)C1C(=O)N(C2CCCCCC2)C(=O)/C1=N\O (stereo not drawn)
inactive: M14 32.1 µM | KM12 37.1 µM | OVCAR-5 50.8 µM | HOP-62 18.7 µM | OVCAR-3 17.6 µM | LOX IMVI 35.6 µM | COLO 205 17.3 µM | SW-620 37.6 µM | U-251 18.6 µM | OVCAR-8 38.6 µM | CAKI-1 40.2 µM | RPMI-8226 29.1 µM | RXF 393 23.5 µM | HL-60 22.5 µM | HT-29 30.3 µM | SR 23.8 µM
